“Also recorded” adds a separate entry of the source.

The record followed here is patent US11779015B2, “Pesticide compositions” (FUNDACIÓ CENTRE DE REGULACIÓ GENÒMICA, priority 2017, dated 2023).

For data set [1], the system named is D. biarmipes. The experiment in a line: Airborne toxicity petri dish assay, adult flies (FIG. 1A). In kind it is in vivo. Particulars: 10% vol. The source says:
(§1) In particular, adult flies 2 were exposed to compositions 4 comprising one or more of a selection of VOCs according to the invention or a comparative example, in a petri dish 6. The compositions 4 were loaded onto the lid 6a of the petri dish 6 and the flies were placed into the base 6b of the dish, which was then covered by a sheet of plastic mesh netting 8 to avoid direct contact of the flies 2 with the compositions 4, before replacing the lid 6a. The onset of paralysis/loss of locomotion control, ultimately resulting in death of the flies 2, was monitored over a period of 1 hour or until all flies 2 were dead, determined when fly wings were vertical (similar to the protocol described in Legal et al. 1992 and 1994).
(§2) Adult flies of Drosophila species were exposed to a 10% vol solution of (E)-2-hexenal and 10% vol solution of methyl benzoate, in an experimental set up as explained in relation to FIG. 1A. For each VOC, species of the suzukii complex (D. suzukii, D. biarmipes), melanogaster complex (D. melanogaster, D. simulans, D. sechellia), and erecta+yakuba complex (D. erecta, D. yakuba, D. santomea) of the melanogaster species group were compared. 5-10 mixed female and male adults were used per trial. FIGS. 4A and B show the results of these experiments, respectively for (E)-2-hexenal (FIG. 4A) and methyl benzoate (FIG. 4B). The data shown represents the average±SEM of the proportion of dead flies as a function of time, over 3 to 6 assays per condition.

Data set [2] has as its system D. simulans. The description is as above. The data set is classed as in vivo. Particulars: 10% vol.
Text: as §1, §2

The test system of data set [3] is D. yakuba. Described as above. In kind it is in vivo. To be noted: 10% vol.
Text: as §1, §2

Data set [4] relates to D. erecta. The description is as above. To be noted: 10% vol. In kind it is in vivo.
Text: as §1, §2

In data set [5] the test system is D. sechellia. Described as above. Particulars: 10% vol. In kind it is in vivo.
Text: as §1, §2

In data set [6] the test system is honeybees (Apis mellifera). The experiment in a line: Airborne toxicity on honeybees in the petri dish assay. The data set is classed as in vivo. Particulars: adult bees exposed for one hour; for toxicity to honey bees: 10% vol. How it is done:
The toxicity of (E)-2-hexenal and methyl benzoate volatiles was tested at 100% (pure) and 10% vol. concentrations on honeybees (Apis mellifera) in the petri dish assay of FIG. 1A. Adult bees were exposed for one hour and the proportion of death across all trials (5 trials with each of the pure VOCs and 10 trials for each of the 10% vol VOC assays) was calculated. The results of these experiments are shown on FIG. 8.
Honeybee foragers were obtained from a large bee keeping company (Agroquímica Ollé, http://agroquimicaolle.com). Bees were held in an incubator at 22 degrees for a few days and provided with ad libitum sugar water.

Data set [7] deals with D. santomea larvae. The experiment in a line: Fly larva chemotaxis assay. The data set is classed as in vivo. Particulars: 1% vol in paraffin oil, 5 minutes. How it is done: (§3) Larvae were exposed to 1% vol solution of (E)-2-hexenal or methyl benzoate in paraffin oil loaded onto the lid of a petri dish. Their movement was tracked for 5 minutes. A preference index was quantified as the fraction of time larvae spent in a zone around the odour sources. A population of 15 larvae were used per trial and they were placed in the centre of the petri dish at the start of the experiment. The average distance of the larvae to the odour sources was also quantified over time. The results of this analysis are shown on FIG. 9, for each of the conditions where a VOC of the invention was used. A total of 10 trials were performed for each condition, i.e. for each VOC and fly species, and 30 trials were performed for a control condition, for which only the solvent paraffin oil was applied.
(§4) Behavioural experiments were performed with third instar foraging larvae. A group of approximately 15 larvae per trial was placed in a Petri dish and monitored during 5 minutes for their chemotactic behaviour, as larvae were exposed to an odour gradient in gas phase emanating from the two odour sources on the lid of the Petri dish. […] Larval behaviour was tracked using a video camera and the data derived was then analysed in Matlab (MathWorks) using custom-made programs to calculate additional time-series variables, and to determine the preference index and the distance of larvae to the source.

For data set [8], the system named is D. suzukii. The experiment in a line: Airborne toxicity petri dish assay, adult flies exposed to VOC vapours (FIG. 1A). To be noted: for LD50 (expected concentration at which 50% of the flies die): D. suzukii adults, vapours from solution in paraffin oil, within an hour; for T50 (time at which 50% of the flies were dead) / T50: D. suzukii; for T50: 10% vol; for airborne toxicity/lethality in the initial screen with a high dose (words): VOC at 10 M in paraffin oil, vapour exposure, 1 hour; for specificity of toxicity, D. suzukii versus D. melanogaster: at least at the 3, 5 and 10% vol concentrations. In kind it is in vivo, Drosophila suzukii. The protocol:
A selection of compounds according to the invention were tested for airborne toxicity to D. suzukii by exposing a population of adult D. suzukii flies to the vapours of the compound using an experimental set up as shown on FIG. 1A.
In particular, adult flies 2 were exposed to compositions 4 comprising one or more of a selection of VOCs according to the invention or a comparative example, in a petri dish 6. The compositions 4 were loaded onto the lid 6a of the petri dish 6 and the flies were placed into the base 6b of the dish, which was then covered by a sheet of plastic mesh netting 8 to avoid direct contact of the flies 2 with the compositions 4, before replacing the lid 6a.
[…] Four drops of 50 microlitres were dispensed into reinforcement rings (not shown) fixed on the inner surface of the petri dish lid 6a.
The experimental set up used was as described in relation to FIG. 1A.
The data is shown as averages±SEM based on 3 to 6 trials for each condition.

For data set [9], the system named is larvae of the other species of the Drosophila melanogaster species group. The experiment in a line: Fly larva chemotaxis assay. The data set is classed as in vivo, Drosophila spp. To be noted: 1% vol in paraffin oil, 5 minutes. The protocol: as §3, §4
Data set [10] relates to honeybees (Apis mellifera). The experiment in a line: Airborne toxicity on honeybees in the petri dish assay. The data set is classed as in vivo. Particulars: applied concentration 4%, paraffin oil, 24 hours.

`COC(=O)c1ccccc1` [methyl benzoate, Methyl benzoate]: the “T50” value in data set [1] was 9.6 min; in [2] it was 9.4 min; in data set [3], 11 min; in [4] it was 13.8 min; in data set [5], 34 min; in [8], 5.9 min. For the same molecule, in [6], the “toxicity to honey bees” value is on record as “low levels of toxicity”. Besides, the larval chemotactic response entry in data set [7] was “strongly attractive”. Besides, the “LD50 (expected concentration at which 50% of the flies die)” value in [8] is on record as 3 % vol. In addition, the “T50 (time at which 50% of the flies were dead)” value is “not lethal” in data set [8] (1% concentration); 9.8 min in data set [8] (concentration 5% vol); 5.9 min in data set [8] (concentration 10% vol); 4.2 min in data set [8] (concentration 20% vol); 2.8 min in data set [8] (concentration 100% vol). Moreover, the “airborne toxicity/lethality in the initial screen with a high dose (words)” value in data set [8] is “highly toxic; also recorded: showed toxicity”. Also, the “specificity of toxicity, D. suzukii versus D. melanogaster” value in [8] was “specific toxicity towards D. suzukii”.
In the case of `CCC/C=C/C=O` [(E)-2-hexenal], the “T50” value in data set [1] came out at 15.4 min; in [2], 9 min; in data set [3], 8.7 min; in data set [4], 5.3 min; in [5], 22.7 min; in data set [8] it was 4.1 min. Moreover, the larval chemotactic response entry in [9] is recorded as “attractive chemotactic responses”. For the same molecule, in data set [6], the “toxicity to honey bees” value is “low levels of toxicity”. Further, in data set [6] (100% (pure) compound), the “toxicity to honey bees (rate)” value is given as “significantly faster rate than pure methyl benzoate”. In addition, the “lethality as a function of the sex of the flies” value in data set [8] (5% vol in paraffin solution, adult D. suzukii, males vs females) is given as “males displayed more sensitivity”. In addition, in data set [8], the “LD50 (expected concentration at which 50% of the flies die)” value is on record as 3 % vol. Besides, the “T50 (time at which 50% of the flies were dead)” value in [8] (1% concentration) is “not lethal”; in [8] (concentration 5% vol), 9.3 min; in [8] (concentration 10% vol), 4.1 min; in data set [8] (concentration 20% vol) it was 1.6 min; in data set [8] (concentration 100% vol) it was 1.2 min. In addition, in [8], the “airborne toxicity/lethality in the initial screen with a high dose (words)” value is “highly toxic; also recorded: showed toxicity”. Moreover, the “specificity of toxicity, D. suzukii versus D. melanogaster” value in [8] was “specific toxicity towards D. suzukii”. Further, in [10], the “Percentage of dead honey bee adults (%)” value came out at 0%.
